# Experimental data as given in a melting point compilation (Tetko et al.; mined from patent text by program, amines drawn as free bases though some values may be those of a salt).
row,melting point [°C],SMILES
1,84 to 86,CCOC(=O)c1c(C(F)(F)F)cc(C(F)(F)F)nc1N
2,147 to 149,O=[N+]([O-])c1oc2ccccc2c1-n1ccnc1
3,90 to 91,CCN(CC)S(=O)(=O)c1nc2ccc([N+](=O)[O-])cc2n1CC
4,92 to 93,CON1C(C)(C)CC(O)CC1(C)C
5,126 to 128,NS(=O)(=O)c1ccc(-n2nc(C(=O)O)cc2-c2ccc(Cl)cc2)cc1
6,149 to 150,Cn1nc(C(=O)O)cc1-c1ccccc1
7,198 to 200,COCC(=S)Nc1c(Cl)c(Cl)cc2nc(OC)c(OC)nc12
8,143 to 146,CCOC(=O)[C@H](Cc1ccc(OC)cc1)NC(=O)C1(NC(=O)OC(C)(C)C)CCCC1
9,129 to 130,CC(=O)Nc1c([N+](=O)[O-])cnn1-c1c(F)cc(C(F)(F)F)cc1Cl
10,190 to 193,CONCc1nc2c(N)nc3cc(OCc4ccccc4)ccc3c2n1CC1CCOCC1
11,173 to 175,CCOC(=O)c1sc2nc(-c3ccccc3)cnc2c1N
12,182,COCCOc1ccc(/C=C/C(=O)NS(=O)(=O)c2ccc(Cl)cc2)c(Oc2ncc(C(F)(F)F)cc2Cl)c1
13,255 to 256,CCCn1c(=O)c2[nH]c(/C=C/c3ccc(OC)c(C)c3OC)nc2n(CCC)c1=O
14,271,CCCn1c(=O)c2[nH]c(/C=C/c3ccc(OC)c(C)c3C)nc2n(CCC)c1=O
15,> 230,CSc1nn2c(O)cc(C)nc2c1S(=O)(=O)c1ccc(C)cc1
16,171 to 172,CCc1ccccc1NS(=O)(=O)c1ccc(N2CCNC2=O)cc1
17,309 to 310,O=C(O)c1c2c(nc3ccc(F)cc13)-c1ccc(-c3ccccc3)cc1CC2
18,208 to 210,OCc1cc(Cl)c(N=C2NCCN2)c(Cl)c1
19,130 to 131,Cc1nc2c(N)nc3ccccc3c2n1CCOCCCc1ccccc1
20,168 to 169,CNC(=O)c1cccc(C(C(N)=O)c2c[nH]c3ccccc23)c1 (stereo not given)
21,153 to 154,COc1ccc(Oc2cccnc2)cc1C#CC(C)N(O)C(N)=O (stereo not given)
22,180 to 182,COc1cc2c(cc1Br)CC/C2=C\C#N

row,melting point [°C],SMILES
1,134 to 136,COc1ccc2cccc(N)c2c1
2,115,CCOCCOc1ccc(-c2nc(C(=O)Nc3nccs3)c(-c3ccc(Cl)cc3)[nH]2)cc1
3,168,CCC1(C)Cc2cc(OCC(=O)O)c(Cl)c(Cl)c2C1=O (stereo not given)
4,169 to 172,Cc1c(C(=O)NC2CCN(Cc3ccccc3)CC2)c2cc(F)ccc2n1C
5,92 to 93,CC1=C(C(=O)OC(CN2CCCCC2)c2ccccc2)C(c2cccc([N+](=O)[O-])c2)n2nccc2N1 (stereo not given)
6,104 to 105,O=C(O)c1cnn(CCCCN2CCN(c3ncccn3)CC2)c1
7,98,COc1cccc(C2C=C(C)NC(CN3C(=O)c4ccccc4C3=O)=C2)c1[N+](=O)[O-] (stereo not given)
8,89 to 90,COCCOc1ccc(N)c([N+](=O)[O-])c1
9,68.7 to 70.9,COCCCOc1ccc(CCCO)c(Oc2ncc(C(F)(F)F)cc2Cl)c1
10,78 to 86,CC(C)C[C@@H](C(=O)N1CCN(C(c2ccc(F)cc2)c2ccc(F)cc2)CC1)N(Cc1ccc(C(C)(C)C)cc1)Cc1ccc(C(C)(C)C)cc1
11,168 to 170,Cc1cc(-c2c(-c3ccc(S(C)(=O)=O)cc3)cnn(-c3ccc(F)cc3)c2=O)ccc1F
12,214,O=C(O)c1nc2cc(N3CCOCC3)c([N+](=O)[O-])cc2[nH]c1=O
13,191 to 193,CS(=O)(=O)n1cnc2cc(Cl)c(Cl)cc21
14,244 to 245,CCC(=O)N1CCN(c2ccc(NC(=O)c3cc(=O)c4cc(F)cc(N5CCN(C)CC5)c4o3)cc2)CC1
15,110 to 111,Nc1cccc(N)c1Oc1ccccc1
16,129 to 131,COCc1cccc(OCCc2cnc(SC)[nH]c2=O)c1
17,145,CC(C)N(CCOc1ccccc1NC(=O)c1cccc2[nH]ccc12)C(C)C
18,70.1 to 72.8,CC(Cl)C(=O)NOCc1ccccc1 (stereo not given)
19,165 to 167,O=C(Nc1ccccc1)N1C[C@@H](P(c2ccccc2)c2ccccc2)[C@H](P(c2ccccc2)c2ccccc2)C1
20,167 to 168,CCCCNC(=O)NS(=O)(=O)CCc1c(C2CC2)nn(C)c1-n1ccc2cc(Cl)cnc21
21,120,CC(C)(C)OC(=O)c1[nH]c2cc(Cl)cc(Cl)c2c1C=C1CON(c2ccccc2)C1=O
22,83 to 85,CN(C)C(=O)n1nc(C(C)(C)C)nc1SC(NS(C)(=O)=O)NS(C)(=O)=O

row,melting point [°C],SMILES
1,186,Cn1cncc1C(O)(c1ccc(Cl)cc1)c1ccc2nc(NN)nc(-c3cccc(Cl)c3)c2c1 (stereo not given)
2,78 to 79,CC(=O)SCC1(C)C(=O)N2CCCC(C(=O)OC(C)(C)C)N2C1=O (stereo not given)
3,258 to 259,CC(=O)Nc1c(C(=O)Cc2ccccc2)[nH]c2cc(Cl)ccc12
4,203 to 204,CCCCCCCCCCCCS(=O)(=O)Nc1cc(-c2nc3cc(Cl)c(Cl)cc3[nH]2)ccc1OC
5,258 to 260,O=C(NCN1CCOCC1)c1cn(-c2ccc(F)cc2)c2cc(-c3ccncc3)ccc2c1=O
6,312 to 313,Cc1c(/C=C/c2ccccc2)nc2ccc(C(=O)O)cn2c1=O
7,174 to 175,CCCc1nccn1-c1nc(-c2ccc(Cl)cc2)c(CCC(=O)O)o1
8,175 to 177,COCC1COc2cc3ncnc(Nc4cccc(I)c4)c3cc2O1 (stereo not given)
9,162 to 163,N#Cc1ccccc1-c1ccc(CNc2cc(Cl)nc3ccnn23)cc1
10,218 to 219,CC1(C)OC(=O)Nc2ccc(-c3cc(F)cc(F)c3)cc21
11,175 to 178,COc1ccccc1N1CCN(Cc2ccccc2C(c2ccc(O)cc2)c2ccc(O)cc2)CC1
12,122 to 123,COc1ccccc1C(C)(O)c1ccccc1OC
13,167 to 168,CCN(CC)c1ccc([N+](=O)[O-])c(C(=O)NCC2CCN(C(c3ccccc3)c3ccccc3)CC2)c1
14,101 to 102,COc1cc(CN(C)c2nn(-c3ccccc3)cc2C=O)ccc1OCc1nc(-c2ccco2)oc1C
15,89 to 90,COC(=O)c1ccc(C#CC(=O)c2ccc3c(c2)CCCC3(C)C)cc1O
16,87,CCN(CC)c1ccc(Nc2ccnc(Nc3cc(OC)c(OC)c(OC)c3)n2)cc1
17,228 to 229,O=C(Nc1c(C(O)(C(F)(F)F)C(F)(F)F)ccc2ccccc12)c1ccco1
18,118 to 120,OCc1csc(NC2CCCCC2)n1
19,183 to 185,O=c1c2cc(F)c(N3CCCC3)cc2n(-c2ccc(F)cc2)c(=O)n1O
20,100,COc1ccccc1N1CCN(CCCOC(=O)Cc2csc(NC(=O)c3ccc(F)cc3)n2)CC1

row,SMILES,melting point [°C]
1,CCn1cc(C(=O)O)c(=O)c2cc(F)c(N3CCNCC3)c(F)c21,234 to 236
2,CC(C)(C)CC(C)(C)C(CCC(=O)OO)CC(=O)OO (stereo not given),60 to 62
3,Cn1ccc(C(Cl)Cl)n1,38.5 to 40
4,CCCC(C)(N)Cc1c[nH]c2ccccc12 (stereo not given),73.5 to 74.5
5,O=NN(CC(=O)O)C([PH](=O)Oc1ccccc1)[PH](=O)Oc1ccccc1 (stereo not given),40 to 44
6,Cc1cccc2c(C3=CCN(C[C@H](O)COc4cccc5[nH]ccc45)CC3)c[nH]c12,155 to 158
